Experimental data: US20100040552A1, “METHODS TO EVALUATE GLUCOCORTICOID RECEPTOR AGONISTS AND ANTAGONISTS FOR EFFECTS ON NEURON-LIKE CELLS” (ROSETTA INPHARMATICS LLC, priority 2005, published 2010)

Tests used:
CA77 cells [1] = experiment: CA77 cell assay, real-time RT-PCR (TaqMan); type: cell-based, rat; settings: CA77 cells
Description: Assay: CA77 cells were plated into 96 well tissue culture dishes at a density of 8×10^4 cells per well in 200 μl of PM and the cultures maintained in a humidified air atmosphere (7.5% CO2) at 37° C. This media was aspirated after 24 hours and replaced with 200 μl of GM and the cultures incubated as before, for an additional 48 hours, at which time the cultures were at approximately 90% confluency.
For the evaluation of agonist activity, the GM was aspirated, replaced with 200 μl of fresh GM containing concentrations of a drug ranging from 0.1 nM to 10,000 nM in a 10-fold dilution series. Control wells of 0 nM drug in GM and 0.1% DMSO in GM were included in the series for each drug. Each drug concentration and the two controls were evaluated on 4 wells. The cultures were maintained in a humidified air atmosphere (7.5% CO2) at 37° C. for 24 hours.
Control wells of 0 nM drug in GM containing 250 nM corticosterone and 0.1% DMSO in GM (without corticosterone) were included in the series for each drug. Each drug concentration and the two controls were evaluated on 4 wells. The cultures were maintained in a humidified air atmosphere (7.5% CO2) at 37° C. for 24 hours.
Lysis of Cells and Isolation of mRNA: Two methods were employed for the lysis of the cells and the isolation of mRNA at the end of the 24-hour incubation with the drugs.
One method was the mRNA Catcher™ Method (using Kit number 37001, sold by Invitrogen Corporation). The GM was aspirated from the cells, the cell monolayer was washed once with PBS (product number 10010, sold by Invitrogen Corporation), and then the cells were lysed in 30 μl of the kit lysis buffer containing 1% β-ME for 5 minutes at room temperature. The lysates were snap frozen in the 96-well plate by placing the plate on dry ice pellets, and the plate was then stored at −80° C.
The lysates were thawed at room temperature and then transferred into individual wells in the mRNA Catcher™ plate. The plate was covered and incubated for 90 minutes at room temperature for RNA hybridization. […]

A549 cells = experiment: A549 cell molecular profiling experiment; type: cell-based; settings: 100 nM
CA77 cells [2] = experiment: CA77 cell microarray profiling; type: cell-based, rat
Description: In order to reduce false positives, progesterone, estradiol, and aldosterone served as out-groups for non-specific effects. Samples were collected at both 6 hours and 24 hours after contacting the CA77 cells with a compound.

Glucocorticoid Receptor [3] = target: T1, Glucocorticoid Receptor (Homo sapiens, UniProt P04150); experiment: Transactivation assay, A549 cells; type: cell-based; settings: A549, read-out: Transactivation, A549 Emax
T1 sequence (P04150 1-777): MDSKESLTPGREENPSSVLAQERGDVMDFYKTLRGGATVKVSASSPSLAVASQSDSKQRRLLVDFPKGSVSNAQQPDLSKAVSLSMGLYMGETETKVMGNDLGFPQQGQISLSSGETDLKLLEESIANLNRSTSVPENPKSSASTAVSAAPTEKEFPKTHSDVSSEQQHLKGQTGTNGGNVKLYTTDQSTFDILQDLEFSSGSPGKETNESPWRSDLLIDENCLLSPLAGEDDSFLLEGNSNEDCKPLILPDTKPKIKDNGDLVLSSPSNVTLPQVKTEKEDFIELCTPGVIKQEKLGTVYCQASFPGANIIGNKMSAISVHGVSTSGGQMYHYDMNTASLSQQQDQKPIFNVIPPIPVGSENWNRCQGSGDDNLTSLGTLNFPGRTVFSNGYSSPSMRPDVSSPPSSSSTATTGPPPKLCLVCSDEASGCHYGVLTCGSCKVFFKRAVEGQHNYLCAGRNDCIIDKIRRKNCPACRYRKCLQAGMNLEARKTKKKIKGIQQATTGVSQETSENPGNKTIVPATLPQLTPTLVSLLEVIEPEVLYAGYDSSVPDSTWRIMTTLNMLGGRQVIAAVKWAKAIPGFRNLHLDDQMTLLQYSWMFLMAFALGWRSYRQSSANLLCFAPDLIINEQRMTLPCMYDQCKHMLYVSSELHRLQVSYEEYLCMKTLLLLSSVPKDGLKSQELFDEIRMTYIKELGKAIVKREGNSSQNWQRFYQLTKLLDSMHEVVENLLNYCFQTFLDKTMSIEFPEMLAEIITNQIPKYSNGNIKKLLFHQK

Glucocorticoid Receptor [4] = target: T1, Glucocorticoid Receptor; experiment: Transactivation assay, MDA cells; type: cell-based; set-up: host or cells: MDA cells; settings: read-out: Transactivation, MDA Emax
Glucocorticoid Receptor [5] = target: T1, Glucocorticoid Receptor; experiment: Transrepression assay, COS cells; type: cell-based; set-up: host or cells: COS cells; settings: COS

Compound: C[C@@H]1C[C@H]2[C@@H]3CCC4=CC(=O)C=C[C@]4(C)[C@@]3(F)[C@@H](O)C[C@]2(C)[C@@]1(O)C(=O)CO [Dexamethasone, dexamethasone]
- Sult1a1 up-regulation as detected by RT-PCR (CA77 cells [1]): 158 fold
- Up-regulated genes in category DMSO (<0%) (A549 cells; set of 1091 genes): 0
- Up-regulated genes in category Full (≧90%) (A549 cells; set of 1091 genes): 1087
- Up-regulated genes in category High (66.7-90%) (A549 cells; set of 1091 genes): 4
- Up-regulated genes in category Low (0-33.3%) (A549 cells; set of 1091 genes): 0
- Up-regulated genes in category Middle (33.3-66.7%) (A549 cells; set of 1091 genes): 0
- Down-regulated genes in category DMSO (<0%) (A549 cells; set of 1249 genes): 0
- Down-regulated genes in category Full (≧90%) (A549 cells; set of 1249 genes): 1237
- Down-regulated genes in category High (66.7-90%) (A549 cells; set of 1249 genes): 12
- Down-regulated genes in category Low (0-33.3%) (A549 cells; set of 1249 genes): 0
- Down-regulated genes in category Middle (33.3-66.7%) (A549 cells; set of 1249 genes): 0
- Sult1a1 up-regulation as detected by microarray (CA77 cells [2]): 11 fold
- Emax (Glucocorticoid Receptor [3]): 118%
- Emax (Glucocorticoid Receptor [4]): 125%
- Emax at 0.3 µM (Glucocorticoid Receptor [5]; read-out: Transrepression, COS % Emax, 0.3 μM): 100%
- Emax at 1 µM (Glucocorticoid Receptor [5]; read-out: Transrepression, COS % Emax, 1 uM): 100%
